Test results taken from patent US11725010B2, “Polyheterocyclic compounds as METTL3 inhibitors” (Storm Therapeutics Limited, priority 2019, dated 2023).
pIC50: −log10 of the molar value.

How the values were obtained:
Caov-3 cells = assay: Caov3 CTG proliferation assay; assay type: cell-based; settings: Homo sapiens, Caov-3; treated for 120 hours, CellTiter-Glo luminescence; read-out: Caov3 cells IC50
Description: CTG Assay (Caov3 Cell Line)
Upon treatment, Coav-3 cells were incubated for 10 min at RT with the CellTiter-Glo reagent (G7571, Promega). Measurement of the luminescence signal was performed on a microplate reader (Ensight, PerkinElmer).
Caov3 CTG Assay—Proliferation Assay

METTL3/14 = METTL3/14 (Homo sapiens (Human), UniProt Q86U44)
KASUMI-1 cells = assay: Kasumi cell assay (CellTiter-Glo cell growth); assay type: cell-based; settings: Homo sapiens, Kasumi 1; treated for 120 hours, CellTiter-Glo luminescence; read-out: KASUMI1 cells IC50
Description: Upon treatment, Kasumil cells were incubated for 10 min at RT with the CellTiter-Glo reagent (G7571, Promega). Measurement of the luminescence signal was performed on a microplate reader (Ensight, PerkinElmer).

METTL3/14, sequence (Q86U44 whole entry): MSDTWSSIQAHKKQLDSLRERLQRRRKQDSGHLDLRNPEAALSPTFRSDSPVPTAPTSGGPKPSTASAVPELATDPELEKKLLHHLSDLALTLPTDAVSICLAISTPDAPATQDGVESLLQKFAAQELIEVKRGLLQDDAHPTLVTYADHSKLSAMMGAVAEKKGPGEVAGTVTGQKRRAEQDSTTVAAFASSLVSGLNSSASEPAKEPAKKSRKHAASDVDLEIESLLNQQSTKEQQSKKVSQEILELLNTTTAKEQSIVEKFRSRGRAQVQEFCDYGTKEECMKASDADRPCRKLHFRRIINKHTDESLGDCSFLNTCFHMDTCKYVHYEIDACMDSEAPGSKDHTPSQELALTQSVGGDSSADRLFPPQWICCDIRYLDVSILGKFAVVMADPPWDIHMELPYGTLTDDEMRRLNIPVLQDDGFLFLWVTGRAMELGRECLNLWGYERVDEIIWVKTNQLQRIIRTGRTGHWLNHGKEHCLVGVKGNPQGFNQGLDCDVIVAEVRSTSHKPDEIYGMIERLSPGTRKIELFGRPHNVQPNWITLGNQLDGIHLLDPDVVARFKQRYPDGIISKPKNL
METTL3/14, sequence (Q9HCE5 whole entry partner): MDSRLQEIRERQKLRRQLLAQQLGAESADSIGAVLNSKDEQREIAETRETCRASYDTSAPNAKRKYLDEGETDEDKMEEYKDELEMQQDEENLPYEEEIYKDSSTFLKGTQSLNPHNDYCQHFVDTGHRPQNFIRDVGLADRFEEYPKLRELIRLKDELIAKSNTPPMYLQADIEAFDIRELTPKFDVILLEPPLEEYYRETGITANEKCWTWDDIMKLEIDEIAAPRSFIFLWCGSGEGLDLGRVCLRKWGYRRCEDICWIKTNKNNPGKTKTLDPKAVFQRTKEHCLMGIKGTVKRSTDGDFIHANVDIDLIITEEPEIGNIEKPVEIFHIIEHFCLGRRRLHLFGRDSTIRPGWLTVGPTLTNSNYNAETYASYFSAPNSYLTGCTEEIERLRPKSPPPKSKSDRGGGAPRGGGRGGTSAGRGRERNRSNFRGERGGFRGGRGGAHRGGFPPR

SMILES | pIC50 (Caov-3 cells) | pIC50 (METTL3/14) | pIC50 (KASUMI-1 cells)
O=C(NCc1cc2[nH]c(CNCC3CCC3)cc2cn1)c1cc(=O)n2ccccc2n1 [Compound 130, N-[(2-{[(cyclobutylmethyl)amino]methyl}-1H-pyrrolo[3,2-c]pyridin-6-yl)methyl]-4-oxo-4H-pyrido[1,2-a]pyrimidine-2-carboxamide] | 6.34 | 8.21 | 5.50
O=C(NCc1ccc2cc(CN3CC4(CCCC4)C3)[nH]c2c1)c1cc(=O)n2ccccc2n1 [Compound 81, N-{[2-({2-azaspiro[3.4]octan-2-yl}methyl)-1H-indol-6-yl]methyl}-4-oxo-4H-pyrido[1,2-a]pyrimidine-2-carboxamide] | 6.25 | 8.21 | 5.99
O=C(NCc1ccc2cc(CN3CCC4(CCCC4)C3)[nH]c2c1)c1cc(=O)n2ccccc2n1 [Compound 113, N-{[2-({2-azaspiro[4.4]nonan-2-yl}methyl)-1H-indol-6-yl]methyl}-4-oxo-4H-pyrido[1,2-a]pyrimidine-2-carboxamide] | 6.24 | 8.21 | 5.78
COc1cnc(C#N)c(-c2cn(Cc3ccc4cc(CNCC5CCC5)[nH]c4c3)nn2)c1 [Example 151, 3-{1-[(2-{[(Cyclobutylmethyl)amino]methyl}-1H-indol-6-yl)methyl]-1H-1,2,3-triazol-4-yl}-5-methoxy-2-pyridinecarbonitrile] | 5.04 |  | 5.14
c1cc(-c2cn(Cc3cc4[nH]c(CN5CCC6(CCC6)C5)cc4cn3)nn2)c2cncn2c1 [Example 155, 2-((6-azaspiro[3.4]octan-6-yl)methyl)-6-((4-(imidazo[1,5-a]pyridin-8-yl)-1H-1,2,3-triazol-1-yl)methyl)-1H-pyrrolo[3,2-c]pyridine] | 6.33 | > 8.21 | 6.26
CC1(NCc2cc3ccc(CNC(=O)c4cc(=O)n5ccccc5n4)cc3[nH]2)CCCC1 [Example 114, N-[(2-{[(1-methylcyclopentyl)amino]methyl}-1H-indol-6-yl)methyl]-4-oxo-4H-pyrido[1,2-a]pyrimidine-2-carboxamide] | 6.17 | 8.21 | 5.84
c1cc(-c2cn(Cc3cc4[nH]c(CNCC5CCC5)cc4cn3)nn2)c2cn[nH]c2c1 [Example 60, N-(cyclobutylmethyl)-1-[6-[[4-(1H-indazol-4-yl)triazol-1-yl]methyl]-1H-pyrrolo[3,2-c]pyridin-2-yl]methanamine] | 6.37 | 8.21 | 5.66
c1cc(-c2cn(Cc3ccc4cc(CN5CC6(CCC6)C5)[nH]c4c3)nn2)c2cn[nH]c2c1 [Compound 122, 4-(1-{[2-({2-azaspiro[3.3]heptanean-2-yl}methyl)-1H-indol-6-yl]methyl}-1H-1,2,3-triazol-4-yl)-1H-indazole] | 6.28 | 8.21 | 5.96
CC12CC(CNCc3cc4cnc(CNC(=O)c5cc(=O)n6ccccc6n5)cc4[nH]3)(C1)C2 [Compound 129, N-[(2-{[({3-methylbicyclo[1.1.1]pentan-1-yl}methyl)amino]methyl}-1H-pyrrolo[3,2-c]pyridin-6-yl)methyl]-4-oxo-4H-pyrido[1,2-a]pyrimidine-2-carboxamide] | 6.16 | 8.21 | 5.54
O=C(NCc1ccc2cc(CN3CC4(CC(F)C4)C3)[nH]c2c1)c1cc(=O)n2ccccc2n1 [Compound 93, N-{[2-({6-fluoro-2-azaspiro[3.3]heptanean-2-yl}methyl)-1H-indol-6-yl]methyl}-4-oxo-4H-pyrido[1,2-a]pyrimidine-2-carboxamide] | 6.34 | 8.21 | 5.88
O=C(NCc1ccc2cc(CN3CC4(CCCCC4)C3)[nH]c2c1)c1cc(=O)n2ccccc2n1 [Compound 90, N-{[2-({2-azaspiro[3.5]nonan-2-yl}methyl)-1H-indol-6-yl]methyl}-4-oxo-4H-pyrido[1,2-a]pyrimidine-2-carboxamide] | 6.22 | 8.21 | 5.90
N#Cc1ncc(F)cc1-c1cn(Cc2ccc3cc(CNCC4CCC4)[nH]c3c2)nn1 [Example 152, 3-(1-((2-(((cyclobutylmethyl)amino)methyl)-1H-indol-6-yl)methyl)-1H-1,2,3-triazol-4-yl)-5-fluoropicolinonitrile] | 5.27 |  | 5.00
O=C(NCc1ccc2cc(CN3CC4(C3)CC(F)(F)C4)[nH]c2c1)c1cc(=O)n2ccccc2n1 [Compound 94, N-{[2-({6,6-difluoro-2-azaspiro[3.3]heptanean-2-yl}methyl)-1H-indol-6-yl]methyl}-4-oxo-4H-pyrido[1,2-a]pyrimidine-2-carboxamide] | 6.17 | 8.21 | 5.65
FC12CC(CNCc3cc4ccc(Cn5cc(-c6cccn7cncc67)nn5)cc4[nH]3)(C1)C2 [Example 124, ({3-fluorobicyclo[1.1.1]pentan-1-yl}methyl)({6-[(4-{imidazo[1,5-a]pyridin-8-yl}-1H-1,2,3-triazol-1-yl)methyl]-1H-indol-2-yl}methyl)amine] | 6.57 | 8.21 | 6.18
O=C(NCc1ccc2cc(CNCC3CCC3)[nH]c2c1)c1cc(=O)n2ccccc2n1 [Example 2, N-[(2-{[(cyclobutylmethyl)amino]methyl}-1H-indol-6-yl)methyl]-4-oxo-4H-pyrido[1,2-a]pyrimidine-2-carboxamide] | 6.63 | 8.21 | 6.23
CC(C)(C)C1CN(Cc2cc3ccc(CNC(=O)c4cc(=O)n5ccccc5n4)cc3[nH]2)C1 [Compound 97, N-({2-[(3-tert-butylazetidin-1-yl)methyl]-1H-indol-6-yl}methyl)-4-oxo-4H-pyrido[1,2-a]pyrimidine-2-carboxamide] | 5.99 |  | 5.51
O=C(NCc1ccc2cc(CN3CCC4(CCC4)C3)[nH]c2c1)c1cc(=O)n2ccccc2n1 [Compound 104, N-{[2-({6-azaspiro[3.4]octan-6-yl}methyl)-1H-indol-6-yl]methyl}-4-oxo-4H-pyrido[1,2-a]pyrimidine-2-carboxamide] | 6.62 | 8.21 | 6.18
O=C(NCc1ccc2cc(CNC3CC34CCC4)[nH]c2c1)c1cc(=O)n2ccccc2n1 (centres unmarked) [Compound 110, 4-oxo-N-({2-[({spiro[2.3]hexan-1-yl}amino)methyl]-1H-indol-6-yl}methyl)-4H-pyrido[1,2-a]pyrimidine-2-carboxamide] | 6.39 | 8.21 | 5.94
O=C(NCc1ccc2cc(CN3CC4(CCC4)C3)[nH]c2c1)c1cc(=O)n2ccccc2n1 [Compound 67, N-[[2-(2-azaspiro[3.3]heptanean-2-ylmethyl)-1H-indol-6-yl]methyl]-4-oxo-pyrido[1,2-a]pyrimidine-2-carboxamide] | 6.32 | 8.21 | 5.76
CC1(CNCc2cc3ccc(CNC(=O)c4cc(=O)n5ccccc5n4)cc3[nH]2)CCC1 [Compound 117, N-{[2-({[(1-methylcyclobutyl)methyl]amino}methyl)-1H-indol-6-yl]methyl}-4-oxo-4H-pyrido[1,2-a]pyrimidine-2-carboxamide] | 6.30 | 8.21 | 5.76
[2H]C([2H])(NCC1CCC1)c1cc2ccc(CNC(=O)c3cc(=O)n4ccccc4n3)cc2[nH]1 [Example 47, N-[[2-[(Cyclobutylmethylamino)-dideuterio-methyl]-1H-indol-6-yl]methyl]-4-oxo-pyrido[1,2-a]pyrimidine-2-carboxamide] | 6.73 | 8.21 | 6.46
O=C(NCc1ccc2cc(CNC3(C4CCC4)CC3)[nH]c2c1)c1cc(=O)n2ccccc2n1 [Compound 116, N-[(2-{[(1-cyclobutylcyclopropyl)amino]methyl}-1H-indol-6-yl)methyl]-4-oxo-4H-pyrido[1,2-a]pyrimidine-2-carboxamide] |  | 8.21 | 5.29
CC(C)(C)C(C)(C)NCc1cc2ccc(CNC(=O)c3cc(=O)n4ccccc4n3)cc2[nH]1 [Compound 100, 4-oxo-N-[(2-{[(2,3,3-trimethylbutan-2-yl)amino]methyl}-1H-indol-6-yl)methyl]-4H-pyrido[1,2-a]pyrimidine-2-carboxamide] | 6.16 |  | 5.59
CCC1(CC)CN(Cc2cc3ccc(CNC(=O)c4cc(=O)n5ccccc5n4)cc3[nH]2)C1 [Compound 102, N-({2-[(3,3-diethylazetidin-1-yl)methyl]-1H-indol-6-yl}methyl)-4-oxo-4H-pyrido[1,2-a]pyrimidine-2-carboxamide] | 6.64 | 8.21 | 6.28
O=C(NCc1ccc2cc(CNCC34CC(F)(C3)C4)[nH]c2c1)c1cc(=O)n2ccsc2n1 [Example 125, N-[(2-{[({3-fluorobicyclo[1.1.1]pentan-1-yl}methyl)amino]methyl}-1H-indol-6-yl)methyl]-5-oxo-5H-[1,3]thiazolo[3,2-a]pyrimidine-7-carboxamide] | 6.67 | 8.21 | 6.30
CC1CC(CNCc2cc3ccc(CNC(=O)c4cc(=O)n5ccccc5n4)cc3[nH]2)C1 (centres unmarked) [Compound 99, N-{[2-({[(3-methylcyclobutyl)methyl]amino}methyl)-1H-indol-6-yl]methyl}-4-oxo-4H-pyrido[1,2-a]pyrimidine-2-carboxamide] | 5.96 |  | 5.49
COc1cc(-c2cn(Cc3ccc4cc(CNCC5CCC5)[nH]c4c3)nn2)c2cncn2c1 [Example 63, N-(cyclobutylmethyl)-1-[6-[[4-(6-methoxyimidazo[1,5-a]pyridin-8-yl)triazol-1-yl]methyl]-1H-indol-2-yl]methanamine] | 6.59 |  | 6.06
